Results taken from paper PMC9365994, “Small molecules to regulate the GH/IGF1 axis by inhibiting the growth hormone receptor synthesis” (Frontiers in Endocrinology, 2022).
“Also recorded” adds a separate entry of the source. Values belong to the compound of their own block, whether it stands above or below them.

Key:
fos-GHRct = molecular target: T1, fos-GHRct (Oryctolagus cuniculus, UniProt P19941); assay: In vitro translation of fos-GHRct in HeLa cell cell-free system; type: biochemical; details: Figure 7B
T1 sequence (P19941 288-638): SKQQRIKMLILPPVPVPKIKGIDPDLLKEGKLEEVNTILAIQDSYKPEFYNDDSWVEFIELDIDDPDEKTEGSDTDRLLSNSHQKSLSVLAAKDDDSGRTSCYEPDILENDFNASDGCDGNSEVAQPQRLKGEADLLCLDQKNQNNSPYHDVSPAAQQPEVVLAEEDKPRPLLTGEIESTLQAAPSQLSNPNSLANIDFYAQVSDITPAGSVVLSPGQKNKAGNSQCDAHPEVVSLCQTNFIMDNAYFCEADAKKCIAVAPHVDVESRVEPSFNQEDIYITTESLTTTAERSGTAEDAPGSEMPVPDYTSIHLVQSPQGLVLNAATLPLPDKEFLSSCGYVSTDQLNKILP
Text: pcDNA3 vector DNA expressing Fos-zippered GHR cytosolic tails as described in ([32]) was used in a cell-free translation system, based on HeLa cell extract (Promega). Empty vector (pcDNA) was used as control. The blots were detected with an anti-GHR antibody raised in rabbits against GHR cytosolic tails.
To decide between these possibilities, we performed in vitro translation experiments.
This experiment represents the results of 6 independent repeats. […] In the right panel the 4 proline residues in box-1 were replaced by alanine residues. Empty vector (pcDNA) was used as control. The blots were detected with anti-GHR(B).

[1] = Liver weight, body weight and side effects in xenografted mice; type: in vivo
Method: (§1) BM001, BM002, and BM003 were used in mice xenografted with MM231 breast cancer cells that are GH-responsive both for growth and drug resistance ([42]–[45]). The cells were orthotopically grafted into the inguinal mammary gland, and drug treatments started when tumors reached a volume of >50 mm^3. We used a treatment regimen of 3 injections per week (1 and 5 mg/kg) during 3 weeks (9 mice/group) ( Figure 6 ). Animals were killed when tumor volume exceeded 150 mm^3 or mice presented lung metastasis upon bioluminescence imaging measurements. […] Drug withdrawal effects were not studied until now. […] We observed no adverse side effects neither on appetite and behavior ([46]). […] We next assessed if the identified drugs indeed target the GH/IGF1 pathway and consequently, if they result in a decrease in liver weight and IGF1 levels, as observed in GHR knockout mice and Laron patients ([47]).

[2] = Glucose and insulin levels in a dog experiment; type: in vivo; details: data not shown
IGF1 = assay: Serum IGF1 levels in xenografted mice; type: in vivo
Method: as §1

[3] = test system: MM231 breast cancer cells; assay: MM231 orthotopic xenograft, tumor growth; type: in vivo, mice; details: 1 and 5 mg/kg, 3 injections per week, 3 weeks
Method: Female RAG2^-/-; IL-2Rgc^-/- immune deficient mice ([37]) were purchased from Envigo (Horst, The Netherlands). Orthotopic transplantations, longitudinal tumor measurements and bioluminescence imaging were performed as described ([38]). Mice were treated when tumors reached a volume of >50 mm^3, three times weekly for a period of three weeks with the indicated drug concentrations.
as §1

[4] = test system: GH-induced GHR-Jak2-Stat5 signaling in IM9 lymphoblasts; assay: Flow cytometric (FACS) pSTAT5 test, GH-induced, IM9 cells in whole blood; details: for GH-induced Stat5 phosphorylation (in words): Fig. S8A, Conc of drugs: 1 mM, incubation time 30 min; for inhibition in the FACS assay: drugs 50 µM for 15 MIN
Method: (§7) First round: The PerFix EXPOSE (Beckman Coulter), was used to fix and permeabilize cells according to the optimized procedure described in Malergue et al., 2015 ([36]). Samples were analyzed in FC500 MPL. Data were analyzed with Kaluza software (Beckman Coulter). Second round: the PerFix EXPOSE was used according to the IFU and samples were analyzed in a Navios Cytometer. The first screening used pure IM-9 cells, whereas in the second round they were spiked in 100 µL whole blood (EDTA tubes). 15 min after the inhibitory compounds, the activators were added for 20-30 min.
In short: A mixture of blood and
(§8) IM9 human lymphoblast was incubated with the drugs (50 µM) for 15 MIN; GH and GM-CSF
(§9) were added 7 min before the cells were fixed with formaldehyde. Blood cells are sensitive to
(§10) GM-CSF, and not to GH; IM9 cells are sensitive to GH. A mixture of three antibodies in three
(§11) colors; CD14-FITC, CD34-PE and p-Stat5-Alexa 647 was used to analyze the p-Stat5 levels
of monocytes and IM9 cells.
(§12) Fig. S8A. FACS plots of compounds that inhibit GH-induced GHR-Jak2-Stat5 signaling in IM9 lymphoblasts.
(§13) The end point of the signaling cascade is measured by assessing the phosphorylation status of STAT5.
(§14) Stat5. Conc of drugs: 1 mM; incubation time 30 min
(§15) Fig. S8B. FACS plots of compounds that inhibit GM-CSF-Jak2-Stat5 signaling in blood monocytes. The end
(§16) point of the signaling cascade is measured by assessing the phosphorylation status of STAT5.

[5] = test system: GM-CSF-Jak2-Stat5 signaling in blood monocytes; assay: Flow cytometric (FACS) pSTAT5 test, GM-CSF-induced, blood monocytes; details: Fig. S8B; Conc of drugs: 1 mM; incubation time 30 min
Method: as §7
In short: A mixture of blood and
as §8, §9, §10, §11
of monocytes and IM9 cells.
as §12, §13, §14, §15, §16

[6] = test system: MDA-MM-231 (MM231) triple-negative human breast cancer line; assay: Cell proliferation assay (CyQuant), MDA-MM-231; type: cell-based
Text: (§2) Based on these 2 compounds, Specs selected a new set of 109 structural analogues ( Supplementary Data 3 ). Twenty-one compounds tested positive in the primary screen protocol. […] ( Figures S12, S13 ). The 14 active drugs are depicted in Figure 4 . In the final test, the 5 best compounds (BM001-BM005) were screened for their […] effect on cancer cells. We used the triple-negative human breast cancer line, MDA-MM-231 (MM231) and the human colon cancer line Colo-205, and quantified DNA in vital cells ( Figure 5B ). Dose-response curves were made after 24, 48 & 72 h. The 5 drugs inhibited both cell lines relatively equal to the dose-response curves monitoring pGHR tails, pJak2, and pSTAT5 ( Figure S13 and Figure S14 ) with IC50 values varying from 30-200 nM ( Figure 5 ). […]
(§3) fos-GHRct phosphorylation (Fig. S12), a remarkable hit rate of […]. Next, we determined the dose-response effect (IC50) of these 21 new compounds on pY-levels of fos-GHRct. The compounds were divided in four categories: no dose-response effect (6), effect less than […]
(§4) plateaued at 200 units of relative fluorescence intensity. […]
(§5) protocol. […]
(§6) Next, we assessed the effect of the best 5 lead compounds (BM001-BM005) for the inhibition of cell proliferation/induction or cell death. […] With a standard green filter set the fluorescence from the nuclei is quantified in a multi-well plate spectrophotometer. […]

[7] = test system: Colo-205 human colon cancer line; assay: Cell proliferation assay (CyQuant), Colo-205; type: cell-based
Text: as §2, §3, §4, §5, §6

concentration inhibiting the synthesis of fos-GHRct (fos-GHRct): 0.1 to 1 µM
glucose levels [2]: did neither affect
insulin levels [2]: did neither affect
SMILES: Cc1nc(N)nc(N)c1/C=C/C1(c2ccc(C(F)(F)F)cc2)CC1 [BM001]
Liver weight ([1]; 1 mg/kg): 1041 mg
Liver weight ([1]; 5 mg/kg): 1038 mg
reduction of liver weight ([1]; 3 injections per week, 3 weeks): 16%
total body weights ([1]; 3 weeks treatment): remained the same
liver weight (in words) ([1]; Figure 6E): dose-dependent reduction
reduction of serum IGF1 levels (IGF1; 3 injections per week, 3 weeks): 73%
plasma IGF1 levels (in words) (IGF1; Figure 6D): dose-dependent reduction
reduction of IGF1 (fold) (IGF1; measured at the end of the experiment): four-fold
tumor growth / tumor volume (in words) [3]: strong decrease; also recorded: continued to suppress tumor growth; also recorded: inhibit tumor growth; also recorded: tumor regression

SMILES: Cc1c(-c2cccc(C#N)c2)ccc2nc(N)nc(N)c12 [BM002]
tumor growth / tumor volume (in words) [3]: started to increase again; also recorded: inhibit tumor growth

SMILES: COc1cc(CN(C)c2ccc3nc(N)nc(N)c3c2)cc(OC)c1OC [BM003]
tumor growth / tumor volume (in words) [3]: started to increase again; also recorded: inhibit tumor growth

SMILES: Cc1nc(N)nc(N)c1C#CC1(c2ccc(Cl)cc2)CC1 [BM004]
time to decrease of STAT5 phosphorylation [4]: ≤ 30 min
GH-induced Stat5 phosphorylation (in words) [4]: decreased; also recorded: inhibit
inhibition in the FACS assay [4]: > 30%
GM-CSF-induced Stat5 phosphorylation (in words) [5]: no effect; also recorded: inactive; also recorded: not affected

SMILES: CCOc1cccc2nc(N)nc(N)c12 [BM012]
time to decrease of STAT5 phosphorylation [4]: ≤ 30 min
GH-induced Stat5 phosphorylation (in words) [4]: decreased; also recorded: inhibit
inhibition in the FACS assay [4]: > 30%
GM-CSF-induced Stat5 phosphorylation (in words) [5]: no effect; also recorded: inactive; also recorded: not affected

SMILES: N#CC[C@H](C1CCCC1)n1cc(-c2ncnc3[nH]ccc23)cn1 [Ruxolitinib, reference compound]
effect on cell proliferation (in words) [6]: no effect
effect on cell proliferation (in words) [7]: no effect
